{
  "source": "patent US7807396B2",
  "about": "“Insulin degrading enzyme assays for treatment of alzheimer's disease” (University of Kentucky Research Foundation, priority 2000, dated 2010)",
  "key": {"neprilysin mRNA": {"test_system": "neprilysin mRNA", "test": "In situ hybridization of neprilysin mRNA in hippocampus of ovariectomized rats", "type": "in vivo, rat", "details": "17β-estradiol pellets, 3 weeks", "from_the_text": "Using in situ hybridization we administered antisense probes for each of exons 1, 2, 3, and 4 (R1, R2, R3 and R4, respectively) to the brains of ovariectomized rats, some of which also received estrogen replacement therapy. Adult female Sprague-Dawley rats (approximate weight 300 grams) were used to study the effects of ovariectomy and estradiol supplementation on neprilysin expression levels and activity. In situ hybridization was used to measure neprilysin mRNA levels while a coupled chromogenic assay [Li, C. and Hersh, L. B. Neprilysin: Assay Methods, Purification and Characterization. Methods in Enzymology. 248, 253-263 (1995)] was used to measure neprilysin activity. […]\nImages on autoradiographic film were analyzed with computer-aided densitometry (MCID-M1, Imaging Research, St. Catharines, Ontario, Canada). Optical density values of the [^14C] microscales were obtained and a correlating log-log linear least-squares fit was calculated (r^2>0.99). […] The optical density of each defined region was determined for the neuronal somal layer of area CA1 (stratum pyramidale), CA3 and dentate gyrus (stratum granulosum). Identification of brain regions was determined using the atlas of Paxinos and Watson (G. Paxinos, C. Watson, The rat Brain in Stereotaxic Coordinates, second Edition, Academic Press, Australia, 1986)."}, "neprilysin": {"test_system": "neprilysin", "test": "Neprilysin enzyme activity in rat brain tissue lysates, two-step assay", "type": "in vivo", "details": "17β-estradiol pellets, 3 weeks", "description": "Adult female Sprague-Dawley rats (approximate weight 300 grams) were used to study the effects of ovariectomy and estradiol supplementation on neprilysin expression levels and activity. […] Ovariectomy was performed at 13 weeks of age and sham-surgery was performed on littermate animals to provide a control group. For estrogen replacement groups, ovariectomized animals were implanted with 17β-estradiol pellets (Innovative Research of America, Sarasota, Fla., USA). Rats were killed 3 weeks later after implantation. The brains were rapidly removed, quickly frozen over dry ice, and stored at −80° C. until father processing. […] The brains were used either for in situ hybridization or for neprilysin activity measurements as noted above.\nIn this assay glutaryl-Ala-Phe-4-methoxy-2-naphthylamide is cleaved to glutaryl-Ala-Ala and Phe-4-methoxy-2-naphthylamide. An aminopetidase is then used to cleave the Phe-4-methoxy-2-naphthylamide releasing fluorescent 4-methoxy-2-naphthylamine which is quantified on a spectrofluorometer.\nThe tissue lysates were evaluated for neprilysin enzymatic activity using a two-step chromogenic assay. […] The 4-methoxy-2-naphthylamine was quantified spectrofluorimetrically at an excitation wavelength of 340 nm and an emission wavelength of 425 nm. […]"}, "[1]": {"test_system": "primary rat cortical neurons", "test": "Neuroprotection / neurotoxicity assay in primary rat cortical neurons", "type": "cell-based", "description": "Neurotoxicity assays were performed as described by Estus et. al. (Estus et al. (1997) J Neurosci 17:7736-7745) using embryonic day 18 rat fetuses to establish primary rat cortical neuron cultures. Rat brain cortical cells were initially cultured in AM0 media for 3-5 hrs in 16 well chamber slides (Nalge Nunc International, Rochester, N.Y.) pre-coated with polyethyleneimine at a density of ˜1×10^5 cells per well. The culture was enriched in neurons by replacement of the AM0 media with Dulbecco's modified Eagle's medium (DMEM, Life Technologies, Rockville, Md.) containing 100 units/ml penicillin, 100 μg/ml streptomycin and 2% B27 serum supplement (Life Technologies, Rockville, Md.).\nCells were treated with Aβ peptides and then fixed with 4% paraformaldehyde for 15 min. at room temperature. After washing the cells with PBS they were then stained with Hoechst 33258 at 1 μg/ml for 10 minutes. Neurons were then visualized by fluorescence microscopy. Those cells with uniformly dispersed chromatin were scored as survivors, while those cells containing condensed chromatin were scored as non-survivors. Readings were typically taken in triplicate with a minimum of 250 neurons scored from each well. Cells treated as described above were visualized using a Nikon microscope equipped with a Hoffman modulation contrast lens. Statistical analysis was performed on the samples using ANOVA.\nTo test this, rat cortical neurons were treated with Aβ peptides in the presence and absence of insulysin. Preliminary experiments were performed to obtain a suitable Aβ peptide concentration that would show a significant cytotoxic effect, as there are batch to batch variations in the ability of the Aβ peptides to mediate cytotoxic effects on cells in culture.\nThe cell based assay using primary rat cortical neurons was used to determine whether the insulysin cleavage products of the Aβ peptides were themselves neurotoxic. Recombinant insulysin at concentrations ranging from 0.5 to 5000 ng was added simultaneously with the Aβ peptides to the cortical cultures."}, "insulysin": {"molecular_target": "T1, insulysin (Rattus norvegicus, UniProt P35559)", "T1 construct": "His6 (N); made in house; host or cells: Sf9 cells, baculovirus (pFASTBAC)", "T1 sequence (P35559 whole entry)": "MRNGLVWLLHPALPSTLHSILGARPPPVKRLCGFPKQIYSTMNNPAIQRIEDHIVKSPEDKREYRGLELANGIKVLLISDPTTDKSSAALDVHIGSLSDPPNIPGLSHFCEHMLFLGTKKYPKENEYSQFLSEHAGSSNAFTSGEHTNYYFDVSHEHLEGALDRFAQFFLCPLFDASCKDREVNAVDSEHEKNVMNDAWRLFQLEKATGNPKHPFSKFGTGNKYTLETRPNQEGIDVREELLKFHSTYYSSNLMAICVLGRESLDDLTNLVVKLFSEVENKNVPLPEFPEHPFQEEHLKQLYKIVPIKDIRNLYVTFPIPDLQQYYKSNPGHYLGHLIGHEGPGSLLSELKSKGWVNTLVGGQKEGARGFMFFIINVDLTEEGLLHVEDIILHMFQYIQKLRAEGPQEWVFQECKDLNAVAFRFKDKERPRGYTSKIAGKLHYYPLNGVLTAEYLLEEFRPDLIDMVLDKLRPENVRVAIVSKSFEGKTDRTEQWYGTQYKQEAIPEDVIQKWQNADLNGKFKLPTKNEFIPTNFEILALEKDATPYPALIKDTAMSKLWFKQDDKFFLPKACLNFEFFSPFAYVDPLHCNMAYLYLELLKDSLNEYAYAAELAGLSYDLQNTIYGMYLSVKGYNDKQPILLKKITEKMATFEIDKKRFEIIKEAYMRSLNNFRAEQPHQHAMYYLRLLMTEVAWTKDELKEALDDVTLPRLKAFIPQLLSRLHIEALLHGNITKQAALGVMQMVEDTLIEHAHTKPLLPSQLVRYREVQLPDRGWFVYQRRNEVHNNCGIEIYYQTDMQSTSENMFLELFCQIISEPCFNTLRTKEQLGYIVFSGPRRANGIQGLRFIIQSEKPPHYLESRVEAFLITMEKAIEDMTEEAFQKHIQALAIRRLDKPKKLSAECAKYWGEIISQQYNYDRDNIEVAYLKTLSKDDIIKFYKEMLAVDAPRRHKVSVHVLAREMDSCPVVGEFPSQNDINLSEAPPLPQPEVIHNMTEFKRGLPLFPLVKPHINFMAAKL", "test": "Insulysin activity with fluorogenic peptide Abz-[…]-EDDnp", "type": "biochemical", "details": "increasing concentrations of the peptide", "experimental": "Referring to FIG. 16, the effect of increasing the concentration of the peptide dynorphin B-9 on insulysin activity is shown. Insulysin activity was measured with the fluorogenic peptide Abz-[…]-EDDnp (SEQ ID No: 14) in the presence of increasing concentrations of the peptide. This peptide contains the fluorescent […] (Abz) which is internally quenched by the 2,4-dinitrophenyl moiety.\nReferring to FIG. 17, the effect of increasing the concentration of several different peptides on insulysin activity is summarized. Insulysin activity was measured with the fluorogenic peptide Abz-[…]-EDDnp (SEQ ID NO: 14) in the presence of increasing concentrations of the peptide."}, "[2]": {"test_system": "rat brain hippocampal neurons", "test": "Hippocampal cell survival with Aβ1-42 with or without insulysin", "type": "cell-based", "excerpt": "In order to determine whether the insulysin cleavage of Aβ peptides produces products which in themselves are neurotoxic, we conducted experiments using cultured primary hippocampal cells. […] An inactivated form of insulysin was used as a control.\nViable cells were detected by microscopy.\nNeuronal survival was estimated as a function of time."}, "pre-aggregated Aβ1-40": {"molecular_target": "T2, pre-aggregated Aβ1-40 (Homo sapiens, UniProt P05067)", "T2 construct": "purchased Amersham (125I-Aβ); QCB/BioSource (synthaloid plates)", "test": "Degradation of pre-aggregated 125I-Aβ1-40 deposited onto synthetic amyloid", "type": "biochemical", "details": "24 hr incubation with 5 μg of insulysin", "from_the_text": "During the progression of Alzheimer's disease monomeric Aβ peptides are deposited onto senile plaques. To test whether insulysin is able to prevent the deposition of the Aβ1-40 peptide, a model system was used in which the deposition of radiolabeled Aβ1-40 onto a synthetic amyloid plaque (synthaloid) is followed (Esler et al. (1999) Methods Enzymol 309:350-74). […] We also conducted an experiment in which ^125I-Aβ1-40 was first deposited onto the synthetic amyloid and then treated with insulysin to see if the enzyme could degrade pre-aggregated Aβ1-40."}, "Aβ1-40 [3]": {"molecular_target": "T3, Aβ1-40 (Homo sapiens, UniProt P05067)", "test": "Rate of cleavage of Aβ1-40 by insulysin", "type": "biochemical", "design": "purchased Bachem (Torrance, Calif.)", "details": "25 μM Aβ1-40", "experimental": "Purified insulysin was incubated with 25 μM Aβ1-40 in 40 mM potassium phosphate buffer, pH 7.2, at 37° C. for 1 hour. The reaction products were loaded onto a C4 reverse phase HPLC column and products resolved using a linear gradient of 5 to 75% acetonitrile over 65 minutes. Products were detected by absorbance at 214 nm using a Waters 484 detector and individual product peaks were collected manually. Product analysis was also conducted on an intact reaction mixture in which products were not resolved by HPLC. Products were identified by matrix assisted laser desorption ionization time of flight mass spectrometry (MALDI-TOF-MS). The reaction of insulysin with Aβ1-42 was conducted in a similar manner with products identified by MALDI-TOF-MS directly from reaction mixtures.\nProduct peaks corresponding to cleavage at the His^13-His^14, His^14-Gln^15, Phe^19-Phe^20 and Phe^20-Ala^21 positions were observed."}, "β-endorphin": {"molecular_target": "T4, β-endorphin (Homo sapiens, UniProt P01189)", "T4 construct": "Human β-endorphin1-31; purchased National Institute on Drug Abuse drug supply system", "T4 sequence (P01189 237-267)": "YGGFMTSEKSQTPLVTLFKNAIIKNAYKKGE", "test": "Insulysin activity determination, disappearance of β-endorphin by HPLC", "type": "biochemical", "details": "30 μM β-endorphin, 37° C.", "experimental": "Materials. […] Solutions were prepared by dissolving the peptide in dimethylsulfoxide (DMSO) to give a stock concentration of 200 μM. The peptide stock was lyophilized and stored at −80° C. until use. The aggregation state of Aβ peptide stock solutions was checked by electron microscopy (Ray et al. (2000) Brain Res 853:344-351) and found to be predominantly, if not exclusively, monomeric. For the in vitro reactions with insulysin, a final concentration of 25 μM Aβ1-40 was obtained after bringing the lyophilized peptide into solution with double distilled water. […] Human β-endorphin1-31, obtained from the National Institute on Drug Abuse drug supply system, was dissolved in water to give a stock solution of 300 μM. Trifluoroacetic acid (Sigma Biochemicals, St. Louis, Mo.) was diluted into water to produce a 5% working solution.\nInsulysin activity was assayed by measuring the disappearance of β-endorphin by isocratic reverse phase HPLC (Safavi et al. (1996) Biochemistry 1996 35:14318-14325). A 100 μl reaction mixture containing 40 mM potassium phosphate buffer, pH 7.2, 30 μM β-endorphin, and enzyme was incubated for 15 minutes at 37° C. […] The β-endorphin peak was detected by absorbance at 214 nm using a Waters 484 detector. The reaction was quantitated by measuring the decrease in the β-endorphin peak area."}, "Aβ1-40 [4]": {"molecular_target": "T3, Aβ1-40", "test": "Aβ1-40 deposition assay onto synthetic amyloid (synthaloid)", "type": "biochemical", "design": "purchased Amersham (125I-Aβ); QCB/BioSource (synthaloid plates)", "experimental": "A protocol was used where amyloid beta 1-40 (Aβ1-40) is initially deposited onto a 96 well microtiter plate. Radioactive (^125I labeled) Aβ1-40 is then added to the wells of this plate where it further adds to the Aβ1-40 deposited. This mimics the deposition of Aβ1-40 seen in the brains of Alzheimer patients.\n96 well plates were pre-coated with Aβ1-40. In the control, 100 pM of ^125I-Aβ1-40 was deposited onto the pre-deposited Aβ1-40 plaque for three hours (lane 1). insulysin was added at concentrations of 500 ng, 50 ng and 5 ng to the wells along with ^125I-Aβ1-40 for three hours (lanes 2 to 4).\nBeta amyloid deposition assays were conducted as described by Esler et. al. (Esler et al. (1997) Nat Biotech 15:268-263). Briefly, 96 well microtiter plates pre-coated with aggregated amyloid β1-40 (QCB/Biosource, Hopkinton, Mass.) were additionally coated with 200 μl of a 0.1% bovine serum albumin solution in 50 mM Tris-HCl, pH 7.5 for 20 minutes to prevent non-specific binding. For measuring Aβ1-40 deposition in the presence or absence of insulysin, a 150 μl solution of 0.1 nM 125I labeled Aβ1-40 in 50 mM Tris-HCl, pH 7.5 was added to the pre-coated well and incubated for four hours. When added, insulysin (0.5 to 500 ng) was placed directly in the well at zero time. The reaction was stopped by washing off excess undeposited radiolabeled Aβ1-40 with 50 mM Tris-HCl, pH 7.5. The radiolabel deposited onto the washed well was counted in a gamma counter. In a variation of this protocol, insulysin was preincubated with ^125 I-Aβ1-40 for 60 minutes and then added to the deposition assay.\nDuring the progression of Alzheimer's disease monomeric Aβ peptides are deposited onto senile plaques. To test whether insulysin is able to prevent the deposition of the Aβ1-40 peptide, a model system was used in which the deposition of radiolabeled Aβ1-40 onto a synthetic amyloid plaque (synthaloid) is followed (Esler et al. (1999) Methods Enzymol 309:350-74). […]"}},
  "data": [
    {"compound": "C[C@]12CC[C@@H]3c4ccc(O)cc4CC[C@H]3[C@@H]1CC[C@@H]2O", "note": "[estrogen, 17β-estradiol]", "values": [
      {"measurement": "expression of neprilysin mRNA in the hippocampus, higher than ovariectomized rats without estrogen", "setting": "neprilysin mRNA", "result": "about 300%"},
      {"measurement": "increase in neprilysin activity in the hippocampus over ovariectomized rats not treated with estrogen", "setting": "neprilysin", "result": "~30", "unit": "%"}
    ]},
    {"compound": "Aβ1-40: amyloid beta peptide 1-40 (SEQ ID NO: 12) obtained from Bachem [reference compound]", "values": [
      {"measurement": "loss of cortical neurons", "setting": "[1]; 30 μM Aβ1-40, 48 hrs", "result": "approximately 70%"}
    ]},
    {"compound": "beta endorphin: peptide, insulysin substrate, found to increase insulysin enzymatic activity", "values": [
      {"measurement": "effect on insulysin activity", "setting": "insulysin", "result": "increase insulysin enzymatic activity"}
    ]},
    {"compound": "dynorphin", "values": [
      {"measurement": "effect on insulysin activity", "setting": "insulysin", "result": "increase insulysin enzymatic activity"}
    ]},
    {"compound": "insulysin: His6-tagged recombinant rat insulysin (insulin degrading enzyme) expressed in Sf9 cells with baculovirus, purified", "values": [
      {"measurement": "Aβ1-42 induced cell death of hippocampal cells", "setting": "[2]; 10 μM Aβ1-42 (initially monomeric), 400 ng insulin degrading enzyme, 24 hrs", "result": "prevented Aβ1-42 induced cell death"},
      {"measurement": "neuronal survival", "setting": "[2]; insulysin added with 25 μM Aβ1-42, up to 12 hours", "result": "survival was close to that seen in the control untreated cells"},
      {"measurement": "release of radioactivity from deposited 125I-Aβ1-40", "setting": "pre-aggregated Aβ1-40", "result": "no radioactivity was released"},
      {"measurement": "rate of cleavage of Aβ1-40", "setting": "Aβ1-40 [3]", "result": 1.2, "unit": "μmols/min/mg enzyme"},
      {"measurement": "amount effective in sparing the neurotoxic effects of Aβ1-42", "setting": "[1]; 25 μM Aβ1-42, added simultaneously, 48 hrs", "result": 500, "unit": "ng"},
      {"measurement": "amount effective in sparing the neurotoxic effects of Aβ1-40", "setting": "[1]; 30 μM Aβ1-40, added simultaneously, 48 hrs", "result": 50, "unit": "ng"},
      {"measurement": "specific activity", "setting": "β-endorphin", "result": 2.6, "unit": "μmols/min/mg"},
      {"measurement": "inhibition of deposition of 125I-Aβ1-40", "setting": "Aβ1-40 [4]; 50 ng of insulysin, 100 pM 125I-Aβ1-40, three hours", "result": 50, "unit": "%"},
      {"measurement": "amount able to prevent the deposition of radiolabeled Aβ1-40", "setting": "Aβ1-40 [4]; insulysin added with 125I-Aβ1-40 (0.1 nM), 4 hr", "result": 50, "unit": "ng"},
      {"measurement": "amount able to prevent the deposition of radiolabeled Aβ1-40", "setting": "Aβ1-40 [4]; insulysin preincubated with 125I-Aβ1-40 for 60 minutes, 4 hr deposition", "result": 50, "unit": "ng"}
    ]}
  ]
}
